In publication PMC10254366, “The Structure of Maltooctaose-Bound Escherichia coli Branching Enzyme Suggests a Mechanism for Donor Chain Specificity” (Molecules, 2023):

Molecular target: T1, EcBE (E. coli branching enzyme) (Escherichia coli, UniProt P07762)
T1 construct: gene glgB; N-domain removed (first 113 amino acids of full-length EcBE); CBM48, catalytic and C-terminal domains kept; overexpressed in E. coli; four molecules per asymmetric unit
T1 sequence (P07762 114-728): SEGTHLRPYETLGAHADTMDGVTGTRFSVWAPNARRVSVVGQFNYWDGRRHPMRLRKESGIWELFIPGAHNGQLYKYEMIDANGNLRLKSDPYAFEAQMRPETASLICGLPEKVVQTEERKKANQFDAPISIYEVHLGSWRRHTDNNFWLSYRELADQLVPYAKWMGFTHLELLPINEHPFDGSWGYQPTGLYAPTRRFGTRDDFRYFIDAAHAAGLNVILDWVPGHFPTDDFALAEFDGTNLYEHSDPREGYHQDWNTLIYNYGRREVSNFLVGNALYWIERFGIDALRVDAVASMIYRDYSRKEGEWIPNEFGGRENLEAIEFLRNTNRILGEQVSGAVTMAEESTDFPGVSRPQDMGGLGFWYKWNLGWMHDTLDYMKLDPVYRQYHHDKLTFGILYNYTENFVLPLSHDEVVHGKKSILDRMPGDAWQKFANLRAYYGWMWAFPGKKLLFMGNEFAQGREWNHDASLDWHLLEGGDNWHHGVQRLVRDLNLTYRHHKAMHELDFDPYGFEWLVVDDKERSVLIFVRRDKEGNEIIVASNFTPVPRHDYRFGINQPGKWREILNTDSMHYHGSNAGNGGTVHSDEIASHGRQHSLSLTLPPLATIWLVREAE
Assay: X-ray crystallography, crystal soak, […] Å
Assay type: binding
Settings: crystals soaked in 150 mM maltooctaose 5.5 h, 1.3 M ammonium tartrate pH 7.6, 10% PEG 4000; surface sites I-V and VIII-XII, not active site

## OC[C@H]1O[C@H](O[C@H]2[C@H](O)[C@@H](O)[C@@H](O[C@H]3[C@H](O)[C@@H](O)[C@@H](O[C@H]4[C@H](O)[C@@H](O)[C@@H](O[C@H]5[C@H](O)[C@@H](O)[C@@H](O[C@H]6[C@H](O)[C@@H](O)[C@@H](O[C@H]7[C@H](O)[C@@H](O)[C@@H](O[C@H]8[C@H](O)[C@@H](O)C(O)O[C@@H]8CO)O[C@@H]7CO)O[C@@H]6CO)O[C@@H]5CO)O[C@@H]4CO)O[C@@H]3CO)O[C@@H]2CO)[C@H](O)[C@@H](O)[C@@H]1O (stereo partly shown) [M8, maltooctaose]
  X-ray crystallography, crystal soak, 3.0 Å: we report the crystal structure of the maltooctaose-bound branching enzyme from the enterobacteria E. coli
